Laboratory results as given in patent US20140288069A1, “AMINO-SUBSTITUTED IMIDAZOPYRIDAZINES AS MKNK1 KINASE INHIBITORS” (Bayer Intellectual Property GmbH, priority 2011, published 2014).

What follows are molecules tested against T1, human full-lengt MKNK1 (Homo sapiens, UniProt Q9BUB5, T385D) (assay: MKNK1 kinase assay (MKNK1 TR-FRET assay)). Conditions: final ATP 10 μM, 15 min pre-incubation, GST-MKNK1 (T344D).
T1 construct: GST (N); purchased Carna Biosciences 02-145; host or cells: insect cells (baculovirus)
T1 sequence (Q9BUB5 1-424 isoform Q9BUB5-2 T344D): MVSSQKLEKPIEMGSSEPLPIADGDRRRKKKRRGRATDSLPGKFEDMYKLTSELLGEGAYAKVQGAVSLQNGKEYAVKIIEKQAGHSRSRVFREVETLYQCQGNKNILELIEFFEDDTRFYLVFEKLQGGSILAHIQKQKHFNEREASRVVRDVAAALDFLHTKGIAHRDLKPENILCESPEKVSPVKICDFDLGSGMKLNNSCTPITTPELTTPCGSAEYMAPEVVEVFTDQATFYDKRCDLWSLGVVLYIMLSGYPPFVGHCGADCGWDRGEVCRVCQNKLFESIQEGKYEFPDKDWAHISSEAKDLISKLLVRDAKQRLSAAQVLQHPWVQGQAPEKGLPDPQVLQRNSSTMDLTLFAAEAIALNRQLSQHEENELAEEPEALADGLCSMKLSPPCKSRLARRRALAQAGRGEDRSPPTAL
Format: biochemical
Method: MKNK1-inhibitory activity of compounds of the present invention was quantified employing the MKNK1 TR-FRET assay as described in the following paragraphs.
As substrate for the kinase reaction the biotinylated peptide biotin-Ahx-[sequence] (C-terminus in amide form) was used which can be purchased e.g. form the company Biosyntan (Berlin-Buch, Germany).
For the assay 50 mL of a 100 fold concentrated solution of the test compound in DMSO was pipetted into a black low volume 384 well microtiter plate (Greiner Bio-One, Frickenhausen, Germany), 2 μL of a solution of MKNK1 in aqueous assay buffer [50 mM HEPES pH 7.5, 5 mM magnesium chloride, 1.0 mM dithiothreitol, 0.005% (v/v) Nonidet-P40 (Sigma)] was added and the mixture was incubated for 15 min at 22° C. to allow pre-binding of the test compounds to the enzyme before the start of the kinase reaction. […] The concentration of MKNK1 was adjusted depending of the activity of the enzyme lot and was chosen appropriate to have the assay in the linear range, typical concentrations were in the range of 0.05 μg/ml. The reaction was stopped by the addition of 5 μL of a solution of TR-FRET detection reagents (5 nM streptavidine-XL665 [Cisbio Bioassays, Codalet, France] and 1 nM anti-ribosomal protein S6 (pSer236)-antibody from Invitrogen [#44921G] and 1 nM LANCE EU-W1024 labeled ProteinG [Perkin-Elmer, product no. 4D0071]) in an aqueous EDTA-solution (100 mM EDTA, 0.1% (w/v) bovine serum albumin in 50 mM HEPES pH 7.5).
The resulting mixture was incubated for 1 h at 22° C. to allow the formation of complex between the phosphorylated biotinylated peptide and the detection reagents. Subsequently the amount of phosphorylated substrate was evaluated by measurement of the resonance energy transfer from the Eu-chelate to the streptavidine-XL.

Row | IC50 [nM] | SMILES
1 | 192 | c1cc(-c2cnc3ccc(NC4CCOCC4)nn23)ccn1 [Example R5, 3-(Pyridin-4-yl)-N-(tetra-hydro-2H-pyran-4-yl)-imidazo-[1,2-b]-pyridazin-6-amine, reference compound]
2 | 4 | OC[C@H](O)CNc1ccc2ncc(-c3cc4ccccc4o3)n2n1 [Example 16, (2R)-3-{[3-(1-Benzofuran-2-yl)imidazo[1,2-b]pyridazin-6-yl]amino}propane-1,2-diol]
3 | 15 | CC[C@@H](CO)Nc1ccc2ncc(-c3cc4ccccc4o3)n2n1 [Example 4, (2S)-2-{[3-(1-Benzofuran-2-yl)-imidazo[1,2-b]-pyridazin-6-yl]-amino}butan-1-ol]
4 | 181 | c1ccc(CNc2ccc3ncc(-c4ccncc4)n3n2)cc1 [Example R1, N-Benzyl-3-(pyridin-4-yl)imidazo[1,2-b]pyridazin-6-amine, reference compound]
5 | 64 | c1ccc(Nc2ccc3ncc(-c4ccncc4)n3n2)cc1 [Example R2, N-Phenyl-3-(pyridin-4-yl)imidazo-[1,2-b]-pyridazin-6-amine, reference compound]
6 | 11 | CN(C)CCNc1ccc2ncc(-c3cc4ccccc4o3)n2n1 [Example R7, N′-[3-(1-Benzofuran-2-yl)imidazo[1,2-b]pyridazin-6-yl]-N,N-dimethylethane-1,2-diamine, reference compound]
7 | 13 | OC[C@@H](O)CNc1ccc2ncc(-c3cc4ccccc4o3)n2n1 [Example 17, (2S)-3-{[3-(1-Benzofuran-2-yl)-imidazo-[1,2-b]-pyridazin-6-yl]amino}-propane-1,2-diol]
8 | 1 | O[C@@H](CNc1ccc2ncc(-c3cc4ccccc4o3)n2n1)c1ccccc1 [Example 18, (1R)-2-{[3-(1-Benzofuran-2-yl)imidazo[1,2-b]pyridazin-6-yl]amino}-1-phenylethanol]
9 | 7 | OCCCNc1ccc2ncc(-c3cc4ccccc4o3)n2n1 [Example 14, 3-{[3-(1-Benzofuran-2-yl)imidazo[1,2-b]pyridazin-6-yl]amino}propan-1-ol]
10 | 17 | c1ccc(CCNc2ccc3ncc(-c4cc5ccccc5o4)n3n2)nc1 [Example R6, 3-(1-Benzofuran-2-yl)-N-[2-(pyridin-2-yl)ethyl]imidazo[1,2-b]pyridazin-6-amine, reference compound]
11 | 6 | OCCNc1ccc2ncc(-c3cc4ccccc4o3)n2n1 [Example 13, 2-{[3-(1-Benzofuran-2-yl)imidazo[1,2-b]pyridazin-6-yl]amino}ethanol]
12 | 1 | O[C@@H](CNc1ccc2ncc(-c3cc4ccccc4o3)n2n1)c1cccnc1 [Example 20, (1R)-2-{[3-(1-Benzofuran-2-yl)imidazo[1,2-b]pyridazin-6-yl]amino}-1-(pyridin-3-yl)ethanol]
13 | 245 | c1cc(Nc2ccc3ncc(-c4ccncc4)n3n2)ccn1 [Example R4, N,3-Di(pyridin-4-yl)-imidazo-[1,2-b]-pyridazin-6-amine, reference compound]
14 | 22 | O[C@H](CNc1ccc2ncc(-c3cc4ccccc4o3)n2n1)c1ccccc1 [Example 19, (1S)-2-{[3-(1-Benzofuran-2-yl)imidazo[1,2-b]pyridazin-6-yl]amino}-1-phenylethanol]
15 | 60 | CC(O)(CNc1ccc2ncc(-c3cc4ccccc4o3)n2n1)c1ccccc1 (centres unmarked) [Example 21, 1-{[3-(1-Benzofuran-2-yl)imidazo[1,2-b]pyridazin-6-yl]amino}-2-phenylpropan-2-ol]
16 | 5 | OC(CNc1ccc2ncc(-c3cc4ccccc4o3)n2n1)c1ccccn1 (centres unmarked) [Example 22, 2-{[3-(1-Benzofuran-2-yl)imidazo[1,2-b]pyridazin-6-yl]amino}-1-(pyridin-2-yl)ethanol]
17 | 32 | OC(CCNc1ccc2ncc(-c3cc4ccccc4o3)n2n1)c1ccc(F)cc1 (centres unmarked) [Example 15, 3-{[3-(1-Benzofuran-2-yl)-imidazo-[1,2-b]-pyridazin-6-yl]-amino}-1-(4-fluoro-phenyl)-propan-1-ol]
18 | 23 | c1ccc2oc(-c3cnc4ccc(NCc5ccncc5)nn34)cc2c1 [Example R8, 3-(1-Benzofuran-2-yl)-N-(pyridin-4-ylmethyl)imidazo[1,2-b]pyridazin-6-amine, reference compound]

The molecules below were run against T2, human full-length MKNK1 (Homo sapiens, UniProt Q9BUB5, T385D) (assay: MKNK1 kinase high ATP assay (TR-FRET-based)). Conditions: final ATP 2 mM, 15 min pre-incubation with MKNK1, GST-MKNK1 (T344D).
T2 construct: GST (N); purchased Carna Biosciences 02-145; host or cells: insect cells (baculovirus)
T2 sequence (Q9BUB5 1-424 isoform Q9BUB5-2 T344D): as above
Format: biochemical
From the text: A recombinant fusion protein of Glutathione-S-Transferase (GST, N-terminally) and human full-length MKNK1 (amino acids 1-424 and T344D of accession number BAA 19885.1), expressed in insect cells using baculovirus expression system and purified via glutathione sepharose affinity chromatography, was purchased from Carna Biosciences (product no 02-145) and used as enzyme. As substrate for the kinase reaction the biotinylated peptide biotin-Ahx-[sequence] (C-terminus in amide form) was used, which can be purchased e.g. from the company Biosyntan (Berlin-Buch, Germany).
For the assay 50 nl nL of a 100 fold concentrated solution of the test compound in DMSO was pipetted into a black low volume 384 well microtiter plate (Greiner Bio-One, Frickenhausen, Germany), 2 μL of a solution of MKNK1 in aqueous assay buffer [50 mM HEPES pH 7.5, 5 mM magnesium chloride, 1.0 mM dithiothreitol, 0.005% (v/v) Nonidet-P40 (Sigma)] was added and the mixture was incubated for 15 min at 22° C. to allow pre-binding of the test compounds to the enzyme before the start of the kinase reaction. Then the kinase reaction was started by the addition of 3 μL of a solution of adenosine-tri-phosphate (ATP, 3.3 mM=>final conc. in the 5 μL assay volume is 2 mM) and substrate (0.1 μM=>final conc. in the 5 μL assay volume is 0.06 μM) in assay buffer and the resulting mixture was incubated for a reaction time of 30 min at 22° C. The concentration of MKNK1 was adjusted depending of the activity of the enzyme lot and was chosen appropriate to have the assay in the linear range, typical concentrations were in the range of 0.003 μg/mL. The reaction was stopped by the addition of 5 μL of a solution of TR-FRET detection reagents (5 nM streptavidine-XL665 [Cisbio Bioassays, Codolet, France] and 1 nM anti-ribosomal protein S6 (pSer236)-antibody from Invitrogen [#44921G] and 1 nM LANCE EU-W1024 labeled ProteinG [Perkin-Elmer, product no. 4D0071]) in an aqueous EDTA-solution (100 mM EDTA, 0.1% (w/v) bovine serum albumin in 50 mM HEPES pH 7.5).
The resulting mixture was incubated for 1 h at 22° C. to allow the formation of complex between the phosphorylated biotinylated peptide and the detection reagents. Subsequently the amount of phosphorylated substrate was evaluated by measurement of the resonance energy transfer from the Eu-chelate to the streptavidine-XL. Therefore, the fluorescence emissions at 620 nm and 665 nm after excitation at 350 nm were measured in a TR-FRET reader, e.g. a Rubystar (BMG Labtechnologies, Offenburg, Germany) or a Viewlux (Perkin-Elmer). The ratio of the emissions at 665 nm and at 622 nm was taken as the measure for the amount of phosphorylated substrate.

Row | SMILES | IC50 [nM]
19 | OC(CNc1ccc2ncc(-c3cc4ccccc4o3)n2n1)CN1CCCC1 (centres unmarked) [Example 40, 1-{[3-(1-Benzofuran-2-yl)imidazo[1,2-b]pyridazin-6-yl]amino}-3-(pyrrolidin-1-yl)propan-2-ol] | 38
20 | OC(CNc1ccc2ncc(-c3cc4ccccc4o3)n2n1)CN1CCCCC1 (centres unmarked) [Example 39, 1-{[3-(1-Benzofuran-2-yl)imidazo[1,2-b]pyridazin-6-yl]amino}-3-(piperidin-1-yl)propan-2-ol] | 37
21 | c1cc(-c2cnc3ccc(NC4CCOCC4)nn23)ccn1 [Example R5, 3-(Pyridin-4-yl)-N-(tetra-hydro-2H-pyran-4-yl)-imidazo-[1,2-b]-pyridazin-6-amine, reference compound] | 480
22 | OC(CNc1ccc2ncc(-c3cc4ccccc4o3)n2n1)C1CC1 (single isomer, unassigned; (+)) [Example 23, (+)-2-{[3-(1-Benzofuran-2-yl)imidazo[1,2-b]pyridazin-6-yl]amino}-1-cyclopropylethanol] | 27
23 | c1ccc(CNc2ccc3ncc(-c4ccncc4)n3n2)cc1 [Example R1, N-Benzyl-3-(pyridin-4-yl)imidazo[1,2-b]pyridazin-6-amine, reference compound] | 370
24 | c1ccc(Nc2ccc3ncc(-c4ccncc4)n3n2)cc1 [Example R2, N-Phenyl-3-(pyridin-4-yl)imidazo-[1,2-b]-pyridazin-6-amine, reference compound] | 170
25 | OC(CNc1ccc2ncc(-c3cc4ccccc4o3)n2n1)CN1CCOCC1 (centres unmarked) [Example 38, 1-{[3-(1-Benzofuran-2-yl)imidazo[1,2-b]pyridazin-6-yl]amino}-3-(morpholin-4-yl)propan-2-ol] | 32
26 | c1ccc(CCNc2ccc3ncc(-c4cc5ccccc5o4)n3n2)nc1 [Example R6, 3-(1-Benzofuran-2-yl)-N-[2-(pyridin-2-yl)ethyl]imidazo[1,2-b]pyridazin-6-amine, reference compound] | 250
27 | c1cc(Nc2ccc3ncc(-c4ccncc4)n3n2)ccn1 [Example R4, N,3-Di(pyridin-4-yl)-imidazo-[1,2-b]-pyridazin-6-amine, reference compound] | 810
28 | OC(CNc1ccc2ncc(-c3cc4ccccc4o3)n2n1)c1ccc(F)cc1 (centres unmarked) [Example 41, 2-{[3-(1-Benzofuran-2-yl)imidazo[1,2-b]pyridazin-6-yl]amino}-1-(4-fluoro-phenyl)ethanol] | 41
29 | c1ccc2oc(-c3cnc4ccc(NCc5ccncc5)nn34)cc2c1 [Example R8, 3-(1-Benzofuran-2-yl)-N-(pyridin-4-ylmethyl)imidazo[1,2-b]pyridazin-6-amine, reference compound] | 34
30 | OC(CNc1ccc2ncc(-c3cc4ccccc4o3)n2n1)C1CCCCC1 (centres unmarked) [Example 37, 2-{[3-(1-Benzofuran-2-yl)imidazo[1,2-b]pyridazin-6-yl]amino}-1-cyclohexylethanol] | 29

The remaining lines, values ahead:

Row | IC50 [nM] | SMILES
31 | 26 | O=C1CCCN1CC(O)CNc1ccc2ncc(-c3cc4ccccc4o3)n2n1 (centres unmarked) [Example 36, 1-(3-{[3-(1-Benzofuran-2-yl)imidazo[1,2-b]pyridazin-6-yl]amino}-2-hydroxy-propyl)pyrrolidin-2-one]
32 | 6 | CCC(O)CNc1ccc2ncc(-c3cc4c(OC)nccc4o3)n2n1 (centres unmarked) [Example 30, 1-{[3-(4-Methoxyfuro[3,2-c]pyridin-2-yl)imidazo[1,2-b]pyridazin-6-yl]amino}butan-2-ol]
33 | 4 | COc1nccc2oc(-c3cnc4ccc(NCC(O)C5CC5)nn34)cc12 (centres unmarked) [Example 27, 1-Cyclopropyl-2-{[3-(4-methoxyfuro[3,2-c]pyridin-2-yl)imidazo[1,2-b]pyridazin-6-yl]amino}ethanol]
34 | 7 | OC(CNc1ccc2ncc(-c3cc4ccccc4o3)n2n1)C1CCOCC1 (single isomer, unassigned; (+)) [Example 25, (+)-2-{[3-(1-Benzofuran-2-yl)imidazo[1,2-b]pyridazin-6-yl]amino}-1-(tetrahydro-2H-pyran-4-yl)]
35 | 2 | OC(CNc1ccc2ncc(-c3cc4ccccc4o3)n2n1)C1CCOCC1 (single isomer, unassigned; (-)) [Example 26, (−)-2-{[3-(1-Benzofuran-2-yl)imidazo[1,2-b]pyridazin-6-yl]amino}-1-(tetrahydro-2H-pyran-4-yl)]
36 | 6 | CCC(O)CNc1ccc2ncc(-c3cc4ccccc4o3)n2n1 (centres unmarked) [Example 29, 1-{[3-(1-Benzofuran-2-yl)imidazo[1,2-b]pyridazin-6-yl]amino}butan-2-ol]
37 | 13 | CN(C)CCNc1ccc2ncc(-c3cc4ccccc4o3)n2n1 [Example R7, N′-[3-(1-Benzofuran-2-yl)imidazo[1,2-b]pyridazin-6-yl]-N,N-dimethylethane-1,2-diamine, reference compound]
38 | 21 | CC(C)(C)C(O)CNc1ccc2ncc(-c3cc4ccccc4o3)n2n1 (centres unmarked) [Example 34, 1-{[3-(1-Benzofuran-2-yl)imidazo[1,2-b]pyridazin-6-yl]amino}-3,3-dimethylbutan-2-ol]
39 | 21 | CC(C)C(O)CNc1ccc2ncc(-c3cc4ccccc4o3)n2n1 (centres unmarked) [Example 33, 1-{[3-(1-Benzofuran-2-yl)imidazo[1,2-b]pyridazin-6-yl]amino}-3-methylbutan-2-ol]
40 | 5 | COc1nccc2oc(-c3cnc4ccc(NC[C@H](O)c5ccccc5)nn34)cc12 [Example 28, (1R)-2-{[3-(4-Methoxyfuro[3,2-c]pyridin-2-yl)imidazo[1,2-b]pyridazin-6-yl]amino}-1-phenylethanol]
41 | 18 | COc1nccc2oc(-c3cnc4ccc(NCC(O)C5CCOCC5)nn34)cc12 (centres unmarked) [Example 32, 2-{[3-(4-Methoxyfuro[3,2-c]pyridin-2-yl)imidazo[1,2-b]pyridazin-6-yl]amino}-1-(tetrahydro-2H-pyran-4-yl)ethanol]
42 | 1 | OC(CNc1ccc2ncc(-c3cc4ccccc4o3)n2n1)C1CC1 (single isomer, unassigned; (-)) [Example 24, (−)-2-{[3-(1-Benzofuran-2-yl)imidazo[1,2-b]pyridazin-6-yl]amino}-1-cyclopropylethanol]
43 | 8 | NCC(O)CNc1ccc2ncc(-c3cc4ccccc4o3)n2n1 (centres unmarked) [Example 31, 1-Amino-3-{[3-(1-benzofuran-2-yl)imidazo[1,2-b]pyridazin-6-yl]amino}propan-2-ol]
44 | 25 | COc1nccc2oc(-c3cnc4ccc(NC[C@@H](O)c5ccccc5)nn34)cc12 [Example 35, (1S)-2-{[3-(4-Methoxyfuro[3,2-c]pyridin-2-yl)imidazo[1,2-b]pyridazin-6-yl]-amino}-1-phenylethanol]
